Results reported in patent publication US9127078B2, “Methods and compositions using splicing regulatory proteins involved in tumor suppression” (The Trustees of the University of Pennsylvania, priority 2008, dated 2015).

Test system: PKC-neg-40B-Luc minigene in 293T cells
Assay: Luciferase splicing reporter screen of the LOPAC 1280 library
Assay type: cell-based
Settings: for Avg Med norm: luciferase fold-increase over the Average Median norm for each plate exclusive of Esrp1 control wells; for Avg Med norm / Avg DMSO Norm: 293T reporter cells, 24 hours; for Avg DMSO Norm: luciferase fold-increase over the Average control (DMSO) norm; for luciferase readings versus background reading: LOPAC screen, result in words
Description: Briefly, compounds from the LOPAC™ library were dissolved in DMSO. 293T cells (which express predominantly FGFR2-IIIc) which stably express the PKC-neg-40B-Luc minigene, as described in Example 1, were incubated with the compounds or with a DMSO control for 24 hours. After the incubation period, BriteLite luciferase readout reagent was added to each well and the plates were read on an Analyst HT multimode plate reader (Molecular Devices). As positive controls, we also added a cDNA encoding the mouse Esrp1 protein to individual wells on each plate.
The results were then ranked in order from largest fold change over background down to the DMSO blank.

| Structure (SMILES) | Avg Med norm [fold] | Avg DMSO Norm [fold] | luciferase readings versus background reading |
| --- | --- | --- | --- |
| CNCC(O)c1ccc(O)c(O)c1.Cl (racemic) [(±)-Epinephrine hydrochloride] | 1.714 | 1.674 |  |
| CC(C)NCC(O)c1ccc(O)c(O)c1.Cl (racemic) [(±)-Isoproterenol hydrochloride] | 1.713 | 1.663 |  |
| NC(N)=NC(=O)c1nc(Cl)c(N2CCCCCC2)nc1N [5-(N,N-hexamethylene)amiloride] | 1.643 | 1.762 |  |
| CNC[C@H](O)c1ccc(O)c(O)c1.O=C(O)C(O)C(O)C(=O)O [(−)-Epinephrine bitartrate] | 1.696 | 1.654 |  |
| C[C@H]1C[C@H]2[C@@H]3CCC4=CC(=O)C=C[C@]4(C)[C@@]3(Cl)[C@@H](O)C[C@]2(C)[C@@]1(O)C(=O)CO [Beclomethasone, 9alpha-Chloro-16beta-methyl-1,4-pregnadiene-11beta,17alpha,-21triol-3,20-dione] | 1.861 | 1.996 | significantly over the background reading |
| Clc1ccccc1C(c1ccccc1)(c1ccccc1)n1ccnc1 [Clotrimazole, 1-(o-Chlorotrityl)-imidazole] | 1.671 | 1.792 |  |
| CCNC(=O)[C@H]1O[C@@H](n2cnc3c(NCc4ccccc4)ncnc32)[C@H](O)[C@@H]1O [N6-Benzyl-5′-N-ethylcarboxamidoadenosine] | 1.822 | 1.953 | significantly over the background reading |
| OC[C@H]1O[C@@H](n2cnc3c(Nc4ccccc4)ncnc32)[C@H](O)[C@@H]1O [N6-Phenyladenosine] | 1.942 | 2.095 |  |
| COc1cccc(-c2cc(=O)c3ccccc3o2)c1N [PD 98,059, 2-(2-Amino-3-methoxyphenyl)-4H-1-benzopyran-4-one] | 1.783 | 1.923 |  |
| CCCCCCCCCCCCCC(=O)O[C@@H]1[C@@H](C)[C@@]2(O)[C@@H](C=C(CO)C[C@]3(O)C(=O)C(C)=C[C@@H]23)[C@@H]2C(C)(C)[C@]12OC(C)=O [Phorbol 12-myristate 13-acetate] | 3.825 | 4.122 | significantly over the background reading |
| COc1cc([C@@H]2c3cc4c(cc3[C@H](O)[C@H]3COC(=O)[C@H]23)OCO4)cc(OC)c1OC [Podophyllotoxin] | 2.036 | 1.985 | significantly over the background reading |
| CC(C)NC[C@H](O)c1ccc(O)c(O)c1.O=C(O)C(O)C(O)C(=O)O [R(−)-Isoproterenol(+)-bitartrate] | 1.996 | 1.943 | significantly over the background reading |
| COc1cccc(NC(=O)/C=C/c2ccc(Cl)cc2)c1 [SB-366791] | 1.665 | 1.795 |  |
| Cc1ccc(O)c(N=Nc2ccccc2)n1 [SIB 1757, 6-Methyl-2-(phenylazo)-3-pyridinol] | 2.598 | 2.803 | significantly over the background reading |
